# Measured values published in patent publication US20100173835A1, “Peptides for Treatment of Obesity” (Novo Nordisk A/S, priority 2008, published 2010).
# Where two headings read alike, the source gives them in different places. Where a SMILES comes first, the peptide text is derived from it. Bridges are numbered along the chain shown (N, C = ends). [ ]: non-standard residue; d: D form. The star is where a group is joined. Palmitoyl(16-(5-tetrazolyl)) = O=C(CCCCCCCCCCCCCCCc1nnn[nH]1)*; Lys(CH2CO2H)2 = N[C@@H](CCCCN(CC(=O)O)CC(=O)O)C(=O)O; Hyp = O=C(O)[C@@H]1C[C@@H](O)CN1; Nle = CCCC[C@H](N)C(=O)O; AEEA = NCCOCCOCC(=O)O; βAla = NCCC(=O)O
# What was measured:
# [1] = Solubility data of compounds in water over the pH range; assay type: physicochemical; settings: read-out: Conc (solubility in water)
# [2] = tested on: ad libitum fed rat model; assay: Assay (I) efficacy testing on appetite, ad libitum fed rat model; assay type: in vivo; settings: dosing 1 mg/kg
# Experimental: Assay (I)—Experimental protocol for efficacy testing on appetite with MC4 analogues, using an ad libitum fed rat model. TAC:SPRD @mol rats or Wistar rats from M&B Breeding and Research Centre A/S, Denmark are used for the experiments. The rats have a body weight 200-250 g at the start of experiment. The rats arrive at least 10-14 days before start of experiment with a body weight of 180-200 g. Each dose of compound is tested in a group of 8 rats. […] When the animals arrive they are housed individually in a reversed light/dark phase (lights off 7:30 am, lights on 7:30 pm), meaning that lights are off during daytime and on during nighttime. […] During this period the animals are handled at least 3 times. The experiment is conducted in the rats' home cages. Immediately before dosing the rats are randomised to the various treatment groups (n 8) by body weight. They are dosed according to body weight at between 7:00 am and 7:45 am, with a 1-3 mg/kg solution administered intraperitoneally (ip), orally (po) or subcutaneously (sc). The time of dosing is recorded for each group. After dosing, the rats are returned to their home cages, where they then have access to food and water. […] At the end of the experimental session, the animals are euthanised. The individual data are recorded in Microsoft excel sheets. Outliers are excluded after applying the Grubbs statistical evaluation test for outliers, and the result is presented graphically using the GraphPad Prism program.
# [3] = biological target: T1, human MC4 receptor (Homo sapiens, UniProt P32245); assay: Assay (V) Melanocortin Receptor 4 (MC4) binding assay; settings: Assay (V) MC4 [Ki] (nM), 125NDP-α-MSH binding, BHK cell membranes
# T1 construct: expressed in transfected cells
# T1 sequence (P32245 whole entry): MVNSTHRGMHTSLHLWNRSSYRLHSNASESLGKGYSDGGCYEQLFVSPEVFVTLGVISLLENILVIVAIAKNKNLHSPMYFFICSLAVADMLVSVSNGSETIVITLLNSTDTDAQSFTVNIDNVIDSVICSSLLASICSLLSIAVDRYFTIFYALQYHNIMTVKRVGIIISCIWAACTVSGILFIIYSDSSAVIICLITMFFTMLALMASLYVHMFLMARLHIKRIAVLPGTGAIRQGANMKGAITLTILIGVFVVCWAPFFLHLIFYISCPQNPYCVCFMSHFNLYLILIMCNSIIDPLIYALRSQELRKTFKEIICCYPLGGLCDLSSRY
# Method in brief: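 BHK membranes stably expressing human MC4 receptor were incubated with ^125NDP-α-MSH (≈79 pM final) and compound for 2 h at 25 °C, pH 7.0 HEPES buffer with HSA or ovalbumin. Filter-bound radioactivity was gamma counted. Binding curves were fitted by non-linear regression.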
# [4] = biological target: T2, MC1 receptor (Homo sapiens, UniProt Q01726); assay: Assay (IV) Melanocortin Receptor 1 (MC1) binding assay
# T2 construct: expressed in transfected cells
# T2 sequence (Q01726 whole entry): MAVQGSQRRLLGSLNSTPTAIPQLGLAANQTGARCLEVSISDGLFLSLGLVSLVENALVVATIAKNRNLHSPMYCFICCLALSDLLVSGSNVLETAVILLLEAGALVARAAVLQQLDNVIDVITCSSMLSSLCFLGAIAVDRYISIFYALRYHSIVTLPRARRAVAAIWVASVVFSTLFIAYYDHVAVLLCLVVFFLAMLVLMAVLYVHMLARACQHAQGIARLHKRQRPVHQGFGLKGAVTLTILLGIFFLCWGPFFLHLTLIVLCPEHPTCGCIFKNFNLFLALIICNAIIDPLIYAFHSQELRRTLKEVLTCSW
# Method in brief: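 Competition binding used BHK cell membranes stably expressing MC1 (25 μg/ml) with 22 pM final ^125NDP-α-MSH in 25 mM HEPES pH 7.4, CaCl2, MgSO4, EDTA, 0.1% HSA (or ovalbumin), 0.005% Tween 20. After 90 min at 30° C., bound radioligand was filtered and counted, with binding curves fitted by non-linear regression.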
smiles,measurement,setting,value
"CCCC[C@H](NC(=O)[C@H](CCCCN(CC(=O)O)CC(=O)O)NC(=O)CCNC(=O)[C@H](Cc1c[nH]cn1)NC(=O)[C@H](CCC(N)=O)NC(=O)[C@H](CO)NC(=O)[C@H](CO)NC(=O)[C@H](CCC(N)=O)NC(=O)[C@@H](CO)NC(=O)CNC(=O)COCCOCCNC(=O)COCCOCCNC(=O)CCCCCCCCCCCCCCCc1nnn[nH]1)C(=O)N[C@H]1CCC(=O)NCCCC[C@@H](C(N)=O)NC(=O)[C@H](Cc2c[nH]c3ccccc23)NC(=O)[C@H](CCCNC(=N)N)NC(=O)[C@@H](Cc2ccccc2)NC(=O)[C@@H]2C[C@@H](O)CN2C1=O [Example 20, (2-{2-[2-(2-{2-[16-(Tetrazol-5-yl)hexadecanoylamino]ethoxy}ethoxy)acetylamino]ethoxy}ethoxy)acetyl-Gly-D-Ser-Gln-Ser-Ser-Gln-His-β-Ala-Lys(biscarboxymethyl)-Nle-c[Glu-Hyp-D-Phe-Arg-Trp-Lys]-NH2] ({Palmitoyl(16-(5-tetrazolyl))-AEEA-AEEA}-G[dS]QSSQH[βAla][Lys(CH2CO2H)2][Nle]E[Hyp][dF]RWK-NH2; lactam 11-16)",solubility at 3 days,"[1]; pH 2.94, pH 2.94",499 µM
same,solubility at 3 days,"[1]; pH 4.37, pH 4.37",512 µM
same,solubility at 3 days,"[1]; pH 4.97, pH 4.97",406 µM
same,solubility at 3 days,"[1]; pH 5.4, pH 5.40",67 µM
same,solubility at 3 days,"[1]; pH 5.51, pH 5.51",56 µM
same,solubility at 3 days,"[1]; pH 6.23, pH 6.23",53 µM
same,solubility at 3 days,"[1]; pH 6.91, pH 6.91",223 µM
same,solubility at 3 days,[1]; pH 6.99,345 µM
same,solubility at 3 days,"[1]; pH 7.23, pH 7.23",473 µM
same,solubility at 3 days,"[1]; pH 7.55, pH 7.55",452 µM
same,Food consumption (% of vehicle) 24 h,[2]; 1 mg/kg,61 % of vehicle
same,Food consumption (% of vehicle) 48 h,[2]; 1 mg/kg,72 % of vehicle
same,Ki,[3],4.55 nM
same,Ki,[4],> 10000 nM
"CCCC[C@H](NC(=O)[C@H](CCCCN(CC(=O)O)CC(=O)O)NC(=O)[C@H](CO)NC(=O)[C@H](CCC(N)=O)NC(=O)[C@H](CO)NC(=O)CNC(=O)COCCOCCNC(=O)CCCCCCCCCCCCCCCc1nnn[nH]1)C(=O)N[C@H]1CCC(=O)NCCCC[C@@H](C(N)=O)NC(=O)[C@H](Cc2c[nH]c3ccccc23)NC(=O)[C@H](CCCNC(=N)N)NC(=O)[C@@H](Cc2ccccc2)NC(=O)[C@@H]2C[C@@H](O)CN2C1=O [Example 5, (2-{2-[16-(Tetrazol-5-yl)hexadecanoylamino]ethoxy}ethoxy)acetyl-Gly-Ser-Gln-Ser-Lys(biscarboxymethyl)-Nle-c[Glu-Hyp-D-Phe-Arg-Trp-Lys]-NH2] ({Palmitoyl(16-(5-tetrazolyl))-AEEA}-GSQS[Lys(CH2CO2H)2][Nle]E[Hyp][dF]RWK-NH2; lactam 7-12)",solubility at 3 days,"[1]; pH 4.22, pH 4.22",20 µM
same,solubility at 3 days,"[1]; pH 4.55, pH 4.55",21 µM
same,solubility at 3 days,"[1]; pH 5.1, pH 5.10",25 µM
same,solubility at 3 days,"[1]; pH 5.23, pH 5.23",30 µM
same,solubility at 3 days,"[1]; pH 5.97, pH 5.97",129 µM
same,solubility at 3 days,"[1]; pH 6.29, pH 6.29",239 µM
same,solubility at 3 days,"[1]; pH 6.68, pH 6.68",244 µM
same,solubility at 3 days,"[1]; pH 7.03, pH 7.03",245 µM
same,solubility at 3 days,"[1]; pH 7.04, pH 7.04",251 µM
same,Food consumption (% of vehicle) 24 h,[2],81 % of vehicle
same,Food consumption (% of vehicle) 48 h,[2],91 % of vehicle
same,Ki,[3],7.55 nM
same,Ki,[4],> 10000 nM
